Experimental data taken from US8999974B2, “Acyl piperazine derivatives as TTX-S blockers” (Raqualia Pharma Inc., priority 2010, dated 2015).

Target: T1, human NaV1.3 (Homo sapiens, UniProt Q9NY46)
T1 construct: expressed in transfected cells; host or cells: HEK293
Assay: FRET assay (EFS, FDSS) on HEK293 cells expressing human NaV1.3 channels
Assay type: cell-based
Details: FRET assay, HEK293 cells expressing human NaV1.3; read-out: IC50 against Nav1.3
Method: This screen was used to determine the effects of compounds on human NaV1.3, human Nav1.7, and human Nav1.5 channels, utilising electrical field stimulation (EFS) system in 96-well plate format on FDSS (Hamamatsu Photonics) platform. The change of membrane potential was monitored with FRET dye pair, oxonol (DiSBAC2(3)) and coumarin (CC2-DMPE).
Each HEK293 cells expressing human NaV1.3 channels and HEK293 cells expressing human NaV1.5 channels were grown in T225 flasks, in a 5% CO2 humidified incubator to about 80% confluence. Media composition consisted of Dulbecco's Modified Eagle Medium (high glucose), 10% FCS, 100 units/ml Penicillin, 100 microgram/ml Streptomycin and 500 microgram/ml Geneticine.
Protocol: • Seeded each cell lines (1×10^5 cells/well) into poly-D-lysine coated 96-well plates prior to experimentation. • Incubated at 37° C. in 5% CO2 for 24 hours. • Washed each well with assay buffer (140 mM NaCl, 4.5 mM KCl, 10 mM D-Glucose, 2 mM CaCl2, 1 mM MgCl2, 10 mM HEPES, pH 7.4 adjusted with NaOH) twice. • Added 1st loading solution containing 10 microM CC2-DMPE and 0.06% Pluronic F-127 in assay buffer. • Incubated the plate at room temperature in dark for 1 hour. • Removed 1st loading solution and added 2nd loading solution containing 15 microM DiSBAC2(3), 0.555 mM VABSC-1 and 0.004% Pluronic F-127 in assay buffer. • Placed the plate under the dark at room temperature for 25 minutes. • Added compound solutions into the assay plate. • Set the assay plate in FDSS and placed an EFS device on the plate. • Measured EFS-induced fluorescent response by FDSS.
The data were analyzed and reported as normalized ratios of intensities measured at […]. The process of calculating these ratios was performed as follows:
[formula] This analysis was performed using a computerized specific program designed for FDSS generated data. Fluorescence ratio values were plotted using XLfit to determine an IC50 value for each compound.

T1 sequence (Q9NY46 whole entry): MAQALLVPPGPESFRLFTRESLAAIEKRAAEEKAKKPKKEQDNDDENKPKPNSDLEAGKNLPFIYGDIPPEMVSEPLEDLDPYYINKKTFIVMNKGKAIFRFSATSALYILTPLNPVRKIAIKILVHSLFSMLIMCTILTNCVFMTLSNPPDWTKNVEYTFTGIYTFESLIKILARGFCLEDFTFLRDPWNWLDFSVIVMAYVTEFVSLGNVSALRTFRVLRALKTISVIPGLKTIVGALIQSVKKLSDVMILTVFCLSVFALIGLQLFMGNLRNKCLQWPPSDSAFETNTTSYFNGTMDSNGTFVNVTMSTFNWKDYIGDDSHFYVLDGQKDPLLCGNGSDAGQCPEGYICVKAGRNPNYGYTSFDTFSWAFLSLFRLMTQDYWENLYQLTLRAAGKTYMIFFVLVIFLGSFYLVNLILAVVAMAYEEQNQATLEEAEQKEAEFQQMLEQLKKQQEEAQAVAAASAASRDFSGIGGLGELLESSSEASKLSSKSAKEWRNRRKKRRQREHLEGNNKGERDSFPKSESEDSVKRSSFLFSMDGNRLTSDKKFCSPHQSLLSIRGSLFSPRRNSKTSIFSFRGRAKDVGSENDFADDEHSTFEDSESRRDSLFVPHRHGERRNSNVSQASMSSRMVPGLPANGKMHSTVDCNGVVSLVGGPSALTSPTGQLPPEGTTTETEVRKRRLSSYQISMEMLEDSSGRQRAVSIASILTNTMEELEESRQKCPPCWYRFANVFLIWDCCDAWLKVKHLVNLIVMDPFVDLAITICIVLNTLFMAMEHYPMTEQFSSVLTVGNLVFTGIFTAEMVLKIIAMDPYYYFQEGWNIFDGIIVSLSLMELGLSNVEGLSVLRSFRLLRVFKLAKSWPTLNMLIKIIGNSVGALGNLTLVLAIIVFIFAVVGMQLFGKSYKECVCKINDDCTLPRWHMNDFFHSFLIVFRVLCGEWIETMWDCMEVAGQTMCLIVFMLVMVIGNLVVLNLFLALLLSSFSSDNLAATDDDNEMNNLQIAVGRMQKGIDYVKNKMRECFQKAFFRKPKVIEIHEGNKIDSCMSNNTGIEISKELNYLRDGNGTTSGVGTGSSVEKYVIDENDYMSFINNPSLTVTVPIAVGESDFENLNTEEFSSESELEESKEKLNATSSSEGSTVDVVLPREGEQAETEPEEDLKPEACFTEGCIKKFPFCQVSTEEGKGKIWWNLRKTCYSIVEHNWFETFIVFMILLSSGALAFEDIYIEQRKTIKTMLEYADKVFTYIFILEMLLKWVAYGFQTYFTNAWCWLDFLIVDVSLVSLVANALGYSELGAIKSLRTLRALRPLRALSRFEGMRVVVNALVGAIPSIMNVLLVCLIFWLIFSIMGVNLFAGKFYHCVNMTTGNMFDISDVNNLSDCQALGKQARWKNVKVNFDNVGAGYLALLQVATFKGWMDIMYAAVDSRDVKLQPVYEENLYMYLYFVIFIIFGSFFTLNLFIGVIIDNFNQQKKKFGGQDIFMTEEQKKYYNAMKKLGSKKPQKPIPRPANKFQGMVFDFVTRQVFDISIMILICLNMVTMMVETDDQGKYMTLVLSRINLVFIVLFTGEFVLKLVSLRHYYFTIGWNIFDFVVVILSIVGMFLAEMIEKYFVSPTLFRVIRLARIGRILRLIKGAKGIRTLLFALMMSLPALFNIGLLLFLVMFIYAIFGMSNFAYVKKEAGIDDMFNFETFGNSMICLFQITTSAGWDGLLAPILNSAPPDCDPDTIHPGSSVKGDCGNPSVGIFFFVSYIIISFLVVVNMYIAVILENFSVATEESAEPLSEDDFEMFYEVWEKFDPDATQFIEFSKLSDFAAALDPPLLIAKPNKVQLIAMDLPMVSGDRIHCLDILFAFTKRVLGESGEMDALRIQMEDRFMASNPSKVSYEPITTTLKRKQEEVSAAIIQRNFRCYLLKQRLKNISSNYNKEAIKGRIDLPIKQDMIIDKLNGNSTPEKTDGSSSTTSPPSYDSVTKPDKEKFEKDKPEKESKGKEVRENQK

SMILES	IC50 [µM]
CC(C)COc1cc(N2CCN(C(=O)COc3cccc(F)c3)CC2)ncn1 [Example 96, 2-(3-fluorophenoxy)-1-(4-(6-isobutoxypyrimidin-4-yl)piperazin-1-yl)ethanone]	< 3
CC(C)COc1cc(N2CCN(C(=O)c3cccc(N4CCCC4)n3)CC2)ncn1 [Example 52, (4-(6-isobutoxypyrimidin-4-yl)piperazin-1-yl)(6-(pyrrolidin-1-yl)pyridin-2-yl)methanone]	< 3
O=C(Cn1nc2ccccc2n1)N1CCN(c2cc(OC3CCC3)ncn2)CC1 [Example 220, 2-(2H-benzo[d][1,2,3]triazol-2-yl)-1-(4-(6-cyclobutoxypyrimidin-4-yl)piperazin-1-yl)ethanone]	< 3
CC(C)Oc1cc(N2CCN(C(=O)c3csc(-c4ccccn4)n3)CC2)ncn1 [Example 193, (4-(6-isopropoxypyrimidin-4-yl)piperazin-1-yl)(2-(pyridin-2-yl)thiazol-4-yl)methanone]	< 3
CCn1nc(C(F)(F)F)cc1C(=O)N1CCN(c2cc(OCC(C)C)ncn2)CC1 [Example 217, (1-ethyl-3-(trifluoromethyl)-1H-pyrazol-5-yl)(4-(6-isobutoxypyrimidin-4-yl)piperazin-1-yl)methanone]	< 3
CC(C)COc1cc(N2CCN(C(=O)COc3cncc(Cl)c3)CC2)ncn1 [Example 144, 2-((5-chloropyridin-3-yl)oxy)-1-(4-(6-isobutoxypyrimidin-4-yl)piperazin-1-yl)ethanone]	< 3
CC(C)COc1cc(N2CCN(C(=O)c3ccc(-c4cnco4)cc3)CC2)ncn1 [Example 92]	< 3
Cc1c(C(=O)N2CCN(c3cc(OC(C)C)ncn3)CC2)nnn1-c1ccc(F)cc1 [Example 203, (1-(4-fluorophenyl)-5-methyl-1H-1,2,3-triazol-4-yl)(4-(6-isopropoxypyrimidin-4-yl)piperazin-1-yl)methanone]	< 3
Cc1ccc(C(=O)N2CCN(c3cc(OC4CCCC4)ncn3)CC2)cc1F [Example 7]	< 3
CC(C)Oc1cc(N2CCN(C(=O)c3cc(-c4ccccc4)nn3C)CC2)ncn1 [Example 164, (4-(6-isopropoxypyrimidin-4-yl)piperazin-1-yl)(1-methyl-3-phenyl-1H-pyrazol-5-yl)methanone]	< 3
CC(C)COc1cc(N2CCN(C(=O)c3nc4ccccc4n3C)CC2)ncn1 [Example 23, (4-(6-isobutoxypyrimidin-4-yl)piperazin-1-yl)(1-methyl-1H-benzo[d]imidazol-2-yl)methanone]	< 3
CC(C)COc1cc(N2CCN(C(=O)Cc3ccc(F)cc3)CC2)ncn1 [Example 119, 2-(4-fluorophenyl)-1-(4-(6-isobutoxypyrimidin-4-yl)piperazin-1-yl)ethanone]	< 3
CC(C)COc1cc(N2CCN(C(=O)c3cccc4[nH]ccc34)CC2)ncn1 [Example 9, (1H-indol-4-yl)(4-(6-isobutoxypyrimidin-4-yl)piperazin-1-yl)methanone]	< 3
Cc1c(C(=O)N2CCN(c3cc(OCC(C)C)ncn3)CC2)nnn1-c1ccccc1 [Example 136, (4-(6-isobutoxpyrimidin-4-yl)piperazin-1-yl)(5-methyl-1-phenyl-1H-1,2,3-triazol-4-yl)methanone]	< 3
CC(C)COc1cc(N2CCN(C(=O)OCc3ccccc3)CC2)ncn1 [Example 53, benzyl 4-(6-isobutoxypyrimidin-4-yl)piperazine-1-carboxylate]	< 3
Cc1c(C(=O)N2CCN(c3cc(OCC(F)(F)F)ncn3)CC2)nnn1-c1ccc(F)cc1 [Example 205, (1-(4-fluorophenyl)-5-methyl-1H-1,2,3-triazol-4-yl)(4-(6-(2,2,2-trifluoroethoxy)pyrimidin-4-yl)piperazin-1-yl)methanone]	< 3
Cc1c(C(=O)N2CCN(c3cc(OC4CCC4)ncn3)CC2)nnn1-c1ccc(F)cc1 [Example 204, (4-(6-cyclobutoxypyrimidin-4-yl)piperazin-1-yl)(1-(4-fluorophenyl)-5-methyl-1H-1,2,3-triazol-4-yl)methanone]	< 3
COCCn1c(C(=O)N2CCN(c3cc(OCC(C)C)ncn3)CC2)cc2ccccc21 [Example 62, (4-(6-isobutoxypyrimidin-4-yl)piperazin-1-yl)(1-(2-methoxyethyl)-1H-indol-2-yl)methanone]	< 3

SMILES	IC50 [µM]
CC(C)COc1cc(N2CCN(C(=O)COc3cccc4ncccc34)CC2)ncn1 [Example 78, 1-(4-(6-isobutoxypyrimidin-4-yl)piperazin-1-yl)-2-(quinolin-5-yloxy)ethanone]	< 3
Cc1nn(-c2ccccc2)nc1C(=O)N1CCN(c2cc(OCC(C)C)ncn2)CC1 [Example 182, (4-(6-isobutoxypyrimidin-4-yl)piperazin-1-yl)(5-methyl-2-phenyl-2H-1,2,3-triazol-4-yl)methanone]	< 3
CC(C)COc1cc(N2CCN(C(=O)Cc3noc4ccccc34)CC2)ncn1 [Example 58, 2-(benzo[d]isoxazol-3-yl)-1-(4-(6-isobutoxypyrimidin-4-yl)piperazin-1-yl)ethanone]	< 3
CC(C)COc1cc(N2CCN(C(=O)CN3C(=O)COc4ccccc43)CC2)ncn1 [Example 57, 4-(2-(4-(6-isobutoxypyrimidin-4-yl)piperazin-1-yl)-2-oxoethyl)-2H-benzo[b][1,4]oxazin-3(4H)-one]	< 3
CC(C)COc1cc(N2CCN(C(=O)c3cccc(OCC(F)(F)F)n3)CC2)ncn1 [Example 232, (4-(6-isobutoxypyrimidin-4-yl)piperazin-1-yl)(6-(2,2,2-trifluoroethoxy)pyridin-2-yl)methanone]	< 3
COc1cc(C(=O)N2CCN(c3cc(OCC(F)(F)F)ncn3)CC2)nc2ccccc12 [Example 63, (4-methoxyquinolin-2-yl)(4-(6-(2,2,2-trifluoroethoxy)pyrimidin-4-yl)piperazin-1-yl)methanone]	< 3
CC(C)COc1cc(N2CCN(C(=O)c3cnn(-c4ccccc4)c3N)CC2)ncn1 [Example 184, (5-amino-1-phenyl-1H-pyrazol-4-yl)(4-(6-isobutoxypyrimidin-4-yl)piperazin-1-yl)methanone]	< 3
COc1cccc(C(=O)NCC(=O)N2CCN(c3cc(OCC(C)C)ncn3)CC2)n1 [Example 73, N-(2-(4-(6-isobutoxypyrimidin-4-yl)piperazin-1-yl)-2-oxoethyl)-6-methoxypicolinamide]	< 3
CCOc1cc(N2CCN(C(=O)c3csc(-c4ccccn4)n3)CC2)ncn1 [Example 241, (4-(6-ethoxypyrimidin-4-yl)piperazin-1-yl)(2-(pyridin-2-yl)thiazol-4-yl)methanone]	< 3
COc1ccccc1-n1cc(C(=O)N2CCN(c3cc(OCC(C)C)ncn3)CC2)cn1 [Example 183, (4-(6-isobutoxypyrimidin-4-yl)piperazin-1-yl)(1-(2-methoxyphenyl)-1H-pyrazol-4-yl)methanone]	< 3
O=C(COc1cccc(F)c1)N1CCN(c2cc(OCC(F)(F)F)ncn2)CC1 [Example 155, 2-(3-fluorophenoxy)-1-(4-(6-(2,2,2-trifluoroethoxy)pyrimidin-4-yl)piperazin-1-yl)ethanone]	< 3
CC(C)COc1cc(N2CCN(C(=O)c3csc(C(C)C)n3)CC2)ncn1 [Example 233, (4-(6-isobutoxypyrimidin-4-yl)piperazin-1-yl)(2-isopropylthiazol-4-yl)methanone]	< 3
Cc1c(C(=O)N2CCN(c3cc(OC4CCC4)ncn3)CC2)nnn1-c1ccccc1 [Example 219, (4-(6-cyclobutoxypyrimidin-4-yl)piperazin-1-yl)(5-methyl-1-phenyl-1H-1,2,3-triazol-4-yl)methanone]	< 3
Cn1nc(C(=O)N2CCN(c3cc(OC4CCC4)ncn3)CC2)c2ccccc21 [Example 38, (4-(6-cyclobutoxypyrimidin-4-yl)piperazin-1-yl)(1-methyl-1H-indazol-3-yl)methanone]	< 3
O=C(Cc1noc2ccccc12)N1CCN(c2cc(OCC(F)(F)F)ncn2)CC1 [Example 107, 2-(benzo[d]isoxazol-3-yl)-1-(4-(6-(2,2,2-trifluoroethoxy)pyrimidin-4-yl)piperazin-1-yl)ethanone]	< 3
CC(C)COc1cc(N2CCN(C(=O)COCc3ccccc3)CC2)ncn1 [Example 106, 2-(benzyloxy)-1-(4-(6-isobutoxypyrimidin-4-yl)piperazin-1-yl)ethanone]	< 3
CC(C)COc1cc(N2CCN(C(=O)C(O)Cc3ccccc3)CC2)ncn1 (stereo in doubt) [Example 5, (R)-2-hydroxy-1-(4-(6-isobutoxypyrimidin-4-yl)piperazin-1-yl)-3-phenylpropan-1-one]	< 3
